Test results published in patent publication US20200071773A1, “TUMOR SIGNATURE FOR METASTASIS, COMPOSITIONS OF MATTER METHODS OF USE THEREOF” (Massachusetts Eye and Ear Infirmary, priority 2017, published 2020).
Entries after “also recorded” stand apart in the source; their conditions may differ.

Columns and labels:
Assay type in all cases: cell-based, human
SCC9 cells [1] = experiment: scRNA-seq p-EMT gene expression score of treated SCC9 cells; details: scRNA-seq 4 hours after treatment, relative to vehicle, TGFβ 10 ng/mL, inhibitors: 1 μM A-83-01, or DMH-1, A-83-01, CHIR99021 and Y-27632
Procedure: RNA-seq of Cell Lines. For scRNA-seq, cells were harvested, stained for viability, and sorted into 96-well plates, as described above. cDNA synthesis, library construction, and sequencing were also performed as described. For bulk RNA, RNA was isolated from 1,000 pooled cells using RNEasy Micro Kit (Qiagen).
(§1) TGFβ Treatment and TGFBI Overexpression. For drug treatment experiments, SCC9 cells were grown in vehicle (4 μM HCl with 1 μg/mL BSA), TGFβ, or TGFβ-inhibitor. For TGFβ-treated cells, 10 ng/mL recombinant TGFβ1 (R&D Systems, Minneapolis, Minn.) or TGFβ3 (R&D systems) was applied. Cells in the TGFβ-inhibitor condition were either grown in 3:1 F12:DMEM (ThermoFisher Scientific) with 1 μM A-83-01 (Tocris Bioscience, Bristol, UK) or small airway basal medium (Lonza, Basel, Switzerland) with four inhibitors of the TGFβ pathway: 1 μM DMH-1, 1 μM A-83-01, 1 μM CHIR99021 (Tocris Bioscience), and 10 μM Y-27632 (Selleck Chemicals, Houston, Tex.). For scRNA-seq, cells in each condition were harvested 4 hours after treatment. […]
Defining Cell and Sample Scores. […] However, such initial scores may be confounded by cell complexity, as cells with higher complexity have more genes detected (i.e. less zeros) and consequently would be expected to have higher cell scores for any gene-set. […] First, all analyzed genes are binned into 25 bins of equal size based on their aggregate expression levels (Ea). […]

SCC9 cells [2] = experiment: Matrigel invasion assay
Procedure: TGFβ Treatment and TGFBI Overexpression. For drug treatment experiments, SCC9 cells were grown in vehicle (4 μM HCl with 1 μg/mL BSA), TGFβ, or TGFβ-inhibitor. For TGFβ-treated cells, 10 ng/mL recombinant TGFβ1 (R&D Systems, Minneapolis, Minn.) or TGFβ3 (R&D systems) was applied. Cells in the TGFβ-inhibitor condition were either grown in 3:1 F12:DMEM (ThermoFisher Scientific) with 1 μM A-83-01 (Tocris Bioscience, Bristol, UK) or small airway basal medium (Lonza, Basel, Switzerland) with four inhibitors of the TGFβ pathway: 1 μM DMH-1, 1 μM A-83-01, 1 μM CHIR99021 (Tocris Bioscience), and 10 μM Y-27632 (Selleck Chemicals, Houston, Tex.). For scRNA-seq, cells in each condition were harvested 4 hours after treatment. For bulk RNA-seq, cells were harvested 2, 4, or 6 days after treatment and titrated for analysis. For matrigel invasion assay and cell proliferation assays, cells were maintained in the given conditions for the duration of the experiment.
Matrigel Invasion Assay. Matrigel invasion assay was performed as previously described (Puram et al., 2012). […] Cells on the lower surface of the membrane were fixed with methanol, stained with crystal violet, and counted in a blinded manner. […]
Matrigel Invasion Assay. […] Invaded cells in each well were counted in a blinded manner across four distinct high powered fields and averaged. Error was calculated as SEM for a representative experiment.

SCC9 cells [3] = experiment: CellTiter-Glo cell proliferation assay; details: relative to vehicle
Procedure: as §1
Cell Proliferation Assay. […] Cells were lysed on days 2, 4, and 6 by adding CTG reagent (Promega), and point luminescence was measured via the BioTek Synergy HTX Platereader (BioTek, Winooski, Vt.). […] CTG luminescence values for individual wells were normalized by subtracting background luminescence (mean luminescence values for wells containing PBS, with CTG reagent added), adjusting for 2 μM adenosine triphosphate (ATP) luminescence measured on the same 96-well plate, and normalizing by numbers of plated cells in each condition (as measured by T0 luminescence).
Cell Proliferation Assay. […] Error was calculated as SEM for a representative experiment.

Row | Molecule | p-EMT program / p-EMT gene expression score (SCC9 cells [1]) | TGFβ response (invasiveness) after genetic inactivation of TGFBI (SCC9 cells [2]; SCC9 TGFBI CRISPR knockout cells versus mock infected) | relative invasiveness (SCC9 cells [2]; SCC9 cells, 24 hours, relative to vehicle) | relative proliferation (SCC9 cells [3])
1 | TGFβ | coherent induction; also recorded: induce a p-EMT-like program | abrogated | increased | reduced
2 | TGF4β3: recombinant TGFβ3 (R&D systems), CAF-related ligand (protein, UniProt P10600 301-412, looked up) Transforming growth factor …: ALDTNYCFRNLEENCCVRPLYIDFRQDLGWKWVHEPKGYYANFCSGPCPYLRSADTTHSTVLGLYNTLNPEASASPCCVPQDLEPLTILYYVGRTPKVEQLSNMVVKSCKCS | increased |  |  | 
